In the NIST ThermoML archive (doi:10.1016/j.fluid.2017.04.007):

Key:
[1] = Molar enthalpy of transition or fusion; settings: Crystal; DSC
[2] = Crystal; DTA
[3] = xn = mol fraction of the nth substance listed; settings: 101 kPa, Liquid, Vibrating tube method

CCCCCCCCCC(=O)O [decanoic acid]
Settings | Molar enthalpy of transition or fusion [kcal/mol] | Normal melting temperature [°C]
[1] | 6.57 | –
[2] | – | 31.60

CCCCCCCCCCCC(=O)O [dodecanoic acid]
Settings | Molar enthalpy of transition or fusion [kcal/mol] | Normal melting temperature [°C]
[1] | 9.04 | –
[2] | – | 44.33

CCCCCCCCCCCCCCCC(=O)O [hexadecanoic acid]
Settings | Molar enthalpy of transition or fusion [kcal/mol] | Normal melting temperature [°C]
[1] | 12.2 | –
[2] | – | 63.69

CCCCCCCCCCCCCCCCCC(=O)O [octadecanoic acid]
Settings | Molar enthalpy of transition or fusion [kcal/mol] | Normal melting temperature [°C]
[1] | 14.7 | –
[2] | – | 70.52

CCCCCCCCCCCCCC(=O)O [tetradecanoic acid]
Settings | Molar enthalpy of transition or fusion [kcal/mol] | Normal melting temperature [°C]
[1] | 9.87 | –
[2] | – | 53.88

CC[N+](CC)(CC)CC.[Cl-] [tetraethylammonium chloride]
Settings | Molar enthalpy of transition or fusion [kcal/mol] | Normal melting temperature [°C]
[1] | 12.2 | –
[2] | – | 253.63

CC[N+](CC)(CC)CC.[Cl-] [tetraethylammonium chloride] + O
mass density [kg/m3], [3]
Settings | 298.15 K | 308.15 K | 318.15 K | 328.15 K | 338.15 K | 348.15 K | 358.15 K
x1 = 0.0173 | 1000.2 | 996.7 | 992.3 | – | – | – | –
x1 = 0.0403 | 1005.7 | 1001.1 | 996.5 | 990.9 | 982.8 | 971.4 | 953.1
x1 = 0.0727 | 1014.9 | 1009.5 | 1003.9 | 998.3 | 992.2 | 985.7 | 977.1
x1 = 0.1213 | 1027 | 1020.8 | 1014.4 | 1008 | 1001.5 | 995.1 | 988.4
x1 = 0.1994 | 1035.4 | 1029.1 | 1022.8 | 1016.4 | 1010 | 1003.4 | 997.2

C[N+](C)(C)C.[Cl-] [tetramethylammonium chloride]
Settings | Normal melting temperature [°C]
[2] | 339.72

C[N+](C)(C)C.[Cl-] [tetramethylammonium chloride] + O
mass density [kg/m3], [3]
Settings | 298.15 K | 308.15 K | 318.15 K | 328.15 K | 338.15 K | 348.15 K | 358.15 K
x1 = 0.026 | 1001.5 | 998.1 | – | – | – | – | –
x1 = 0.06 | 1005.7 | 1001.7 | 997.5 | 991.3 | 985.1 | 975.6 | 959.5
x1 = 0.1062 | 1012.8 | 1008.6 | 1004.1 | 999.5 | 993.1 | 986.6 | 977.1
x1 = 0.1731 | 1022.5 | 1018.1 | 1013.5 | 1008.9 | 1004 | 998.9 | 993
x1 = 0.2831 | 1034.1 | 1029.5 | 1025 | 1020.3 | 1015.7 | 1010.9 | 1006.1
